From patent US20240132503A1, “SALT FORM AND CRYSTAL FORM OF PYRAZOLE SUBSTITUTED IMIDAZO[1,2- A]QUINOXALINE DERIVATIVE” (OCUMENSION THERAPEUTICS (SUZHOU) CO., LTD, priority 2021, published 2024)

Assays:
[1] = Solid stability test of crystal form A (influencing factors and accelerated conditions; HPLC purity and XRPD); format: physicochemical
Description: All the stability samples were subjected to XRPD detection to detect changes in crystal forms.
About 10 mg of the crystal form was accurately weighed, put in a dry and clean glass bottle, spread into a thin layer, covered with aluminum foil with small pierced holes, and put under conditions of the influencing factor test and accelerated conditions. A sample under sunlight conditions (1200000 Lux visible light, and 200 W ultraviolet light) was put in a transparent glass bottle and fully exposed, and a sample used for XRPD detection was put separately.
After the sample was taken out by a time point, the glass bottle was covered with a lid, sealed with parafilm, and stored in a refrigerator at −20° C. During sample preparation, the sample was taken out of the refrigerator and recovered to room temperature, 10 mL of 80% ACN was added, and the sample was dissolved by ultrasonication for 2 minutes to obtain a solution at a concentration of about 1 mg/mL. A liquid phase was used for sample analysis, and the test result was compared with an initial test result on Day 0.
Preparation of a standard solution on Day 0: About 10 mg of the crystal form was weighed, put into a 10 mL volumetric flask, dissolved in 80% acetonitrile and diluted to the scale.
In addition, all the stability samples were subjected to the HPLC tests.

Syk protein kinase = Syk protein kinase (Homo sapiens (Human), UniProt P43405); test: In vitro evaluation of inhibitory activity against Syk protein kinase (HTRF KinEASE TK); format: biochemical
Text: Test purpose: to measure an inhibitory IC50 value of the compounds against Syk protein kinase.
Test material: Syk kinase (Invitrogen, PV3857) • DTT (Sigma#43815): dithiothreitol • ATP (Sigma#A7699): triphosadenine • MgCl2 (Sigma#63020): magnesium chloride • MnCl2 (Sigma#M1787): manganese chloride • EDTA (Invitrogen#15575-020): ethylenediaminetetraacetic acid • HEPES Buffer (Invitrogen#15630-080): zwitterionic sulfonic acid buffer • HTRF® KinEASE™ TK (Cisbio#62TK0PEC, 20000 tests): HTRF kinase kit • Low volume, 384-well, white polystyrene plate (Greiner#784075) • 384-well microplates (Greiner#781946) • Centrifuge (Eppendorf#5810R) • Micropipette (Eppendorf) • Pipette (Greiner) • Pipettor (Eppendorf) • Mutidorp injector • POD 810 Plate Assembler Fully Automatic Microplate Pretreatment System • Envision Reader […]

[2] = molecular target: KDR (VEGFR-2) protein kinase (Homo sapiens (Human), UniProt P35968); test: In vitro evaluation of inhibitory activity against KDR (VEGFR-2) protein kinase (ADP-Glo kinase assay); format: biochemical
Text: The KDR Kinase Kit was designed to use Kinase-Glo® MAX as a teat reagent to measure KDR kinase activity, and the IC50 value of the compound was used as an indicator for compound screening and analysis.
ADP-GLO™ Kinase Assay is an assay reaction for measuring adenosine diphosphate formed by the kinase by using a luminescent kinase; and ADP was converted into ATP, that is, conversion into a light signal via Ultra-Glo™ Luciferase. The light signal was positively correlated with the quantity of ADP and kinase activity. Such assay was very suitable for determining the activity of the compound, making the assay ideal for primary screening and a kinase selectivity assay. The ADP-Glo™ Kinase Assay can be used to monitor the activity of almost all ADP-producing enzymes (for example, a kinase or ATPase): • 1) Enzyme, substrate, ATP and inhibitors were diluted in kinase buffer; • 2) 384-well plate: 1 μL of inhibitor or (5% dimethyl sulfoxide solution) 2 μL of KDR enzyme, and 2 μL of substrate/ATP mixture; • 3) The 384-well plate was incubated at room temperature for 60 minutes; • 4) 5 μL of ADP-GLO™ reagent was added; • 5) The 384-well plate was incubated at room temperature for 40 minutes; • 6) 10 μL of kinase test reagent was added; • 7) The 384-well plate was incubated at room temperature for 30 minutes; • 8) Lumination (integration time: 0.5 to 1 second) was recorded. […]

[3] = 40° C., relative humidity 75%, opened, 1 months
[4] = 40° C., relative humidity 75%, opened, 2 months
[5] = 40° C., relative humidity 75%, opened, 3 months
[6] = 60° C., relative humidity 75%, opened, 1 month
[7] = 60° C., relative humidity 75%, opened, 2 months
[8] = Control group kept in the dark, wrapped with tin foil
[9] = High humidity (relative humidity 92.5%, opened), 1 week
[10] = High humidity (relative humidity 92.5%, opened), 2 week
[11] = High temperature (60° C., opened), 1 week
[12] = High temperature (60° C., opened), 2 week
[13] = Visible light + ultraviolet light (ICH condition), visible 1200000 lux·hrs

Sequence of KDR (VEGFR-2) protein kinase (P35968 20-1356): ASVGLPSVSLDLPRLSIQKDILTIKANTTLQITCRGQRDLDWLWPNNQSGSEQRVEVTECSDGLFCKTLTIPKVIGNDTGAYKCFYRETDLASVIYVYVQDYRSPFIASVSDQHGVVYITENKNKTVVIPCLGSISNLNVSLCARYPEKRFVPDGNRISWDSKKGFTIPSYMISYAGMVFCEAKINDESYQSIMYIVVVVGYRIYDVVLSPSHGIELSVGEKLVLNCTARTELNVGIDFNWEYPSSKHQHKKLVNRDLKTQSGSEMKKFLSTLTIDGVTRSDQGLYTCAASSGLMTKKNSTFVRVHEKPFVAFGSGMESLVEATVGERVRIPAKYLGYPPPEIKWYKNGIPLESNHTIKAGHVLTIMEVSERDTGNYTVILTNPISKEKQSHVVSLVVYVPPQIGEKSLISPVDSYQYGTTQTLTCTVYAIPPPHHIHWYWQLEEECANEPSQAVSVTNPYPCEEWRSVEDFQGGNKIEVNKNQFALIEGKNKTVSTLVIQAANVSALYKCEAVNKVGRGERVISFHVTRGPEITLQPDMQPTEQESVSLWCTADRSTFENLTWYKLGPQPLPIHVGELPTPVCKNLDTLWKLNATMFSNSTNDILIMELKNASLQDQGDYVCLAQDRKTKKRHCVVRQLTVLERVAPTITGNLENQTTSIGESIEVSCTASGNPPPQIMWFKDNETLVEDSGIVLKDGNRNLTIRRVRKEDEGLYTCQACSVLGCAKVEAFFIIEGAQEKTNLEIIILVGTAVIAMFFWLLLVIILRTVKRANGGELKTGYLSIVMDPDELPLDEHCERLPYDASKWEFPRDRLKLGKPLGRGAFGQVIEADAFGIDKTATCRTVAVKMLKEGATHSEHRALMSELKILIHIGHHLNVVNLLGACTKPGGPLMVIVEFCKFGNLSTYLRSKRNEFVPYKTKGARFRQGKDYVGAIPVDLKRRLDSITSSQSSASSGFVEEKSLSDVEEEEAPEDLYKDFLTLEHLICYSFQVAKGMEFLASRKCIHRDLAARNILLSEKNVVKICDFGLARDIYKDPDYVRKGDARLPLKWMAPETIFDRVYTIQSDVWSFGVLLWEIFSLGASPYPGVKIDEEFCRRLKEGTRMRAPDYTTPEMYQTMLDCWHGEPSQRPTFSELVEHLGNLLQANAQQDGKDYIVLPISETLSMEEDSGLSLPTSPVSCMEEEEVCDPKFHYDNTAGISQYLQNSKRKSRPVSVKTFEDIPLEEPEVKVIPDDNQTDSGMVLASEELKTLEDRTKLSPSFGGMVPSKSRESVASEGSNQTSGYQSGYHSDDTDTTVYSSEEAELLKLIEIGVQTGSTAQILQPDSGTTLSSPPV

SMILES: c1cn2c(n1)c(Nc1ccc(N3CCOCC3)cc1)nc1ccc(-c3cn[nH]c3)cc12
- Crystal form (XRPD) [1, 3]: Crystal form A
- Purity (area %) [1, 3]: 99.12 area %
- Crystal form (XRPD) [1, 4]: Crystal form A
- Purity (area %) [1, 4]: 99.06 area %
- Crystal form (XRPD) [1, 5]: Crystal form A
- Purity (area %) [1, 5]: 99.04 area %
- Crystal form (XRPD) [1, 6]: Crystal form A
- Purity (area %) [1, 6]: 99.15 area %
- Crystal form (XRPD) [1, 7]: Crystal form A
- Purity (area %) [1, 7]: 99.03 area %
- Crystal form (XRPD) [1, 8]: Crystal form A
- Purity (area %) [1, 8]: 99.12 area %
- Crystal form (XRPD) ([1]; Day 0): Crystal form A
- Purity (area %) ([1]; Day 0): 99.05 area %
- Crystal form (XRPD) [1, 9]: Crystal form A
- Purity (area %) [1, 9]: 99.03 area %
- Crystal form (XRPD) [1, 10]: Crystal form A
- Purity (area %) [1, 10]: 99.11 area %
- Crystal form (XRPD) [1, 11]: Crystal form A
- Purity (area %) [1, 11]: 98.99 area %
- Crystal form (XRPD) [1, 12]: Crystal form A
- Purity (area %) [1, 12]: 99.10 area %
- Crystal form (XRPD) [1, 13]: Crystal form A
- Purity (area %) [1, 13]: 99.12 area %
- change in purity and crystal form ([1]; all stability conditions (high temperature, high humidity and sunlight)): no significant change
- chemical stability ([1]; conclusion in words): good chemical stability
- IC50 (Syk protein kinase; ATP 2 μM): 25 nM
- inhibitory activity against Syk (Syk protein kinase; conclusion in words): good inhibitory activity
- IC50 [2]: 28 nM
- inhibitory activity against KDR (VEGFR-2) ([2]; conclusion in words): good inhibitory activity
